Data as given in ChEMBL document CHEMBL5375968, “Peptide TK-HR from the Skin of Chinese Folk Medicine Frog Hoplobatrachus Rugulosus Accelerates Wound Healing via the Activation of the Neurokinin-1 Receptor” (J Med Chem, 2023).
Active and inactive are the calls of the source. No cut-off for these calls is given here.

Experiments:
HUVEC [1] = assay: Induction of cell migration in HUVEC cells assessed as healing rate at 20 uM measured after 24 hrs by scratch healing assay (reference value: 30.2 %); format: functional, Homo sapiens
RAW264.7 [2] = assay: Upregulation of phosphorylated ERK level in Aprepitant-treated mouse RAW264.7 cells at 2.5 to 20 uM incubated for 4 hrs by Western blot analysis; format: functional, cell-based; settings: dose 2.5-20 µM
[3] = Induction of wound healing in BALB/c mouse model of full-thickness wounds at 50 ug/ml, TOP bid pretreated with Aprepitant for 2 hrs followed by compound administration measured after 8 days (reference value: 82.1 %); format: functional; settings: dose 50 µg/ml, time 8 day
[4] = Induction of TGF-beta1 level in Aprepitant-treated mouse RAW264.7 cells at 20 uM incubated for 24 hrs by ELISA; format: functional
[5] = Induction of wound healing in BALB/c mouse model of full-thickness wounds at 100 ug/ml, TOP bid measured after 6 days (reference value: 71.7 %); format: functional; settings: dose 100 µg/ml, time 6 day
Mus musculus [6] = organism: Mus musculus; assay: Induction of wound healing in BALB/c mouse model of full-thickness wounds assessed as parallel alignment of collagen fibers at 50 to 200 ug/ml, TOP bid measured after 8 days by Masson's Trichome staining based analysis; format: functional; settings: dose 50-200 µg/ml, time 8.0 day
[7] = Induction of wound healing in BALB/c mouse model of full-thickness wounds at 100 ug/ml, TOP bid measured after 8 days (reference value: 81.0 %); format: functional; settings: dose 100 µg/ml, time 8 day
Escherichia coli = assay: Antimicrobial activity against Escherichia coli ATCC 25922 assessed as microbial growth inhibition at 100 uM; format: functional, organism-based
RAW264.7 [8] = assay: Induction of phagocytosis in mouse RAW264.7 cells cultured with Escherichia coli ATCC 25922 assessed as number of surviving engulfed bacteria at 10 uM incubated for 24 hrs followed by bacterial exposure for 1 hr and further treated with gentamycin for 2 hrs by plate counting method (reference value: 37); format: functional
[9] = Induction of wound healing in BALB/c mouse model of full-thickness wounds at 100 ug/ml, TOP bid measured after 2 days (reference value: 30.4 %); format: functional; settings: dose 100 µg/ml, time 2 day
Mus musculus [10] = organism: Mus musculus; assay: Induction of wound healing in BALB/c mouse model of full-thickness wounds assessed as increase in recruitment of total macrophages in wound skin at 50 ug/ml, TOP bid measured after 2 days by IHC analysis; format: functional; settings: dose 50.0 µg/ml, time 2.0 day
[11] = Induction of wound healing in BALB/c mouse model of full-thickness wounds at 200 ug/ml, TOP bid measured after 6 days (reference value: 71.7 %); format: functional; settings: dose 200 µg/ml, time 6 day
[12] = Induction of wound healing in BALB/c mouse model of full-thickness wounds at 200 ug/ml, TOP bid measured after 4 days (reference value: 48.6 %); format: functional; settings: dose 200 µg/ml, time 4 day
HUVEC [13] = assay: Angiogenic activity in Aprepitant-treated HUVEC cells assessed as increase in tube formation at 20 uM measured for 4 hrs by microscopic analysis; format: functional, cell-based; settings: Homo sapiens
[14] = Induction of wound healing in BALB/c mouse model of full-thickness wounds at 200 ug/ml, TOP bid measured after 8 days (reference value: 81.0 %); format: functional; settings: dose 200 µg/ml, time 8 day
[15] = Induction of TGF-beta1 level in mouse RAW264.7 cells at 10 uM incubated for 24 hrs by ELISA; format: functional
Mus musculus [16] = organism: Mus musculus; assay: Induction of wound healing in BALB/c mouse model of full-thickness wounds assessed as decrease in TNF-alpha level in wound skin at 50 ug/ml, TOP bid measured after 4 days by ELISA; format: functional; settings: dose 50.0 µg/ml, time 4.0 day
RAW264.7 [17] = assay: Effect on total ERK level in mouse RAW264.7 cells at 2.5 to 20 uM incubated for 4 hrs by Western blot analysis; format: functional, cell-based; settings: dose 2.5-20 µM
Mus musculus [18] = organism: Mus musculus; assay: Induction of wound healing in BALB/c mouse model of full-thickness wounds assessed as alignment of collagen fibers close to normal skin at 50 to 200 ug/ml, TOP bid measured after 8 days by Masson's Trichome staining based analysis; format: functional; settings: dose 50-200 µg/ml, time 8.0 day
HaCaT [19] = assay: Induction of cell migration in Mitomycin C-treated human HaCaT cells assessed as healing rate at 20 uM measured after 24 hrs by scratch healing assay (reference value: 21.3 %); format: functional
[20] = Induction of wound healing in BALB/c mouse model of full-thickness wounds assessed as increase in collagen deposition in wound sites at 50 to 200 ug/ml, TOP bid measured after 8 days by Masson's Trichome staining based analysis relative to control; format: functional; settings: dose 50-200 µg/ml, time 8 day, at 50 to 200 µg/mL
RAW264.7 [21] = assay: Induction of phagocytosis in mouse RAW264.7 cells cultured with Escherichia coli ATCC 25922 assessed as number of engulfed bacteria at 20 uM incubated for 24 hrs followed by bacterial exposure measured after 1 hr by plate counting method (reference value: 225); format: functional; settings: time 25 hrs
HUVEC [22] = assay: Induction of cell migration in Aprepitant-treated HUVEC cells assessed as healing rate at 20 uM measured after 48 hrs by scratch healing assay (reference value: 57.2 %); format: functional, Homo sapiens
Mast cell = assay: Inhibition of degranulation in mast cells (unknown origin) assessed as beta- hexosaminidase release upto 40 uM; format: functional, cell-based
RAW264.7 [23] = assay: Induction of phagocytosis in mouse RAW264.7 cells assessed as increase in neutral red dye uptake by measuring optical density at 540 nm at 10 uM incubated for 24 hrs followed by dye addition measured after 4 hrs by absorbance based assay (reference value: 0.073); format: functional; settings: time 28 hrs
RAW264.7 [24] = assay: Upregulation of phosphorylated JNK level in Aprepitant-treated mouse RAW264.7 cells at 2.5 to 20 uM incubated for 4 hrs by Western blot analysis; format: functional, cell-based; settings: dose 2.5-20 µM
HUVEC [25] = assay: Induction of cell migration in HUVEC cells assessed as actin stress fiber formation at peripheral side of cytoplasmic membrane at 20 uM measured after 24 hrs by immunofluorescence microscopy; format: functional, cell-based; settings: Homo sapiens
HaCaT [26] = assay: Induction of cell migration in human HaCaT cells assessed as formation of cytoplasmic protrusions at 20 uM measured after 24 hrs by immunofluorescence microscopy; format: functional, cell-based
[27] = Induction of wound healing in BALB/c mouse model of full-thickness wounds assessed as recruitment of M1-type macrophages in wound skin at 50 ug/ml, TOP bid measured after 4 days by flow cytometry (reference value: 85.3 %); format: functional; settings: dose 50 µg/ml, time 4 day
Splenic fibroblast = assay: Effect on Smad3 activation in human […] fibroblasts upto 20 uM by Western blot analysis; format: functional, cell-based
Mus musculus [28] = organism: Mus musculus; assay: Induction of wound healing in BALB/c mouse model of full-thickness wounds assessed as increase in endothelial cells in wound skin at 50 ug/ml, TOP bid measured after 4 days by IHC analysis; format: functional, cell-based; settings: dose 50.0 µg/ml, time 4.0 day

Substance: H-KPNPDRFYGLM-NH2
- Activity (HUVEC [1]): 46.7%
- Activity (RAW264.7 [2]): inactive
- Activity [3]: 82.5%
- Activity [4]: 46.7 pg/mL
- Activity [5]: 93.9%
- Activity (Mus musculus [6]): Active
- Activity [7]: 100%
- Activity (Escherichia coli): inactive
- Activity (RAW264.7 [8]): 25
- Activity [9]: 46.6%
- Activity (Mus musculus [10]): Active
- Activity [11]: 100%
- Activity [12]: 77.1%
- Activity (HUVEC [13]): inactive
- Activity [14]: 100%
- Activity [15]: 90.7 pg/mL
- Activity (Mus musculus [16]): Active
- Activity (RAW264.7 [17]): inactive
- Activity (Mus musculus [18]): Active
- Activity (HaCaT [19]): 40.2%
- Activity [20]: 197%
- Activity (RAW264.7 [21]): 350
- Activity (HUVEC [22]): 65%
- inhibition (Mast cell): Active
- OD (RAW264.7 [23]): 0.107
- Activity (RAW264.7 [24]): inactive
- Activity (HUVEC [25]): Active
- Activity (HaCaT [26]): Active
- Activity [27]: 69.9%
- Activity (Splenic fibroblast): inactive
- Activity (Mus musculus [28]): Active
